The text below walks through data of patent US10722532B2, “Polymer-conjugated METAP2 inhibitors, and therapeutic methods of use thereof” (SynDevRx, Inc., priority 2010, dated 2020).

≈ marks a conversion by molar mass, not a printed value. Read-outs that look alike come from different tables or passages of the source.

For series [1] the following is noted: for T ½: buffer; for Natural Rate Constant: 37° C., 5 μM.
Protocol: At the appropriate time points, a 50 μL sample was withdrawn and diluted with three volumes of methanol containing propranolol as an internal standard (one solution was made for the entire study). The concentration of carbamoylfumagillol in the solution was analyzed by LC/MS/MS over seven days.
Series [2] concerns A549 cells. Nature of the series: A549 human non-small cell lung carcinoma cell viability assay (CellTiter-Glo). The settings on record: small molecules, 72 hours exposure. The series is classed as cell-based. The method, then: (§1) Test compounds, small molecules or polymer conjugates, were dissolved in dimethyl sulfoxide to a stock concentration of 5 mg/mL. The test agents were then diluted to an intermediate concentration at 200 μg/mL in 10% DMSO. Further dilutions were completed serially 3-fold in 10% DMSO to produce 12 decreasing concentrations for in-vitro analysis. To achieve the target concentrations of the in-vitro assays, […] of the intermediate drug preparation was delivered to the cells (seeded in a volume of 50 μL). The final DMSO concentration for the tests was 0.2% for all doses of test agent.
Cells were exposed to twelve increasing concentrations of formulated test agent from 2×10^−6 to 4.0 μg/mL for 72 hours. Following 72 hour exposure, 25 μL of CellTiter-Glo® Reagent was added to each well. The plates were incubated for 60 minutes at 37° C. in a humidified incubator. After incubation, luminescence was recorded using the Molecular Devices AnalystGT multi-mode reader.
(§2) Data are expressed as the percent cell growth of the untreated (vehicle) control calculated from the luminescence signals. The surviving fraction of cells is determined by dividing the mean luminescence values of the test agents by the mean luminescence values of untreated control. The inhibitory concentration value for the test agent(s) and control were estimated using Prism 5 software (GraphPad Software, Inc.) by curve-fitting the data using the non-linear regression analysis.
The human tumor cell lines A549 and HCT-116 were obtained from American Type Culture Collection (Manassas, Va.). The Human umbilical vein epithelial cells (HUVEC) were obtained from Lonza (Basel, Switzerland). The A549 cells were maintained RPMI 1640 w/L-glut supplemented with 5% FBS. The HCT-116 cells were maintained in McCoy's 5a supplemented with 5% FBS. The HUVEC line was grown in Endothelial Growth Medium with supplements and growth factors (BBE, hydrocortisone, hEGF, FBS and gentamicin/amphotericin-B). All cells were house in an atmosphere of 5% CO2 at 37° C. Cells were dissociated with 0.05% Trypsin and 0.02% EDTA.
The human tumor cell line A549 was obtained from American Type Culture Collection (Manassas, Va.). The A549 cells were maintained RPMI 1640 w/L-glut supplemented with 5% FBS. A549 cells were seeded at 500 cells per well 24 hours prior to test agent exposure in a volume of 50 μL. The cells were housed in an atmosphere of 5% CO2 at 37° C. Cells were dissociated with 0.05% Trypsin and 0.02% EDTA.
(In general: ATP-based viability assays read luminescence as a measure of living cells.)

The conditions of series [3]: in man; as metabolite of TNP-470; cited from earlier work.
In another series the test system is HUVEC cells. Nature of the series: Human umbilical vein epithelial cell viability assay (CellTiter-Glo). The series is classed as cell-based. The settings on record: small molecules, 72 hours exposure. Here is the method:
as §1, §2
The Human umbilical vein epithelial cells (HUVEC) were obtained from Lonza (Basel, Switzerland). The HUVEC line was grown in Endothelial Growth Medium with supplements and growth factors (BBE, hydrocortisone, hEGF, FBS and gentamicin/amphotericin-B). All cells were housed in an atmosphere of 5% CO2 at 37° C. Cells were dissociated with 0.05% Trypsin and 0.02% EDTA.
HUVEC cells were seeded at 1000 cells per well 24 hours prior to test agent exposure in a volume of […]. Cells were exposed to twelve increasing concentrations of formulated test agent from 2.3×10^−6 to 4.02 μg/mL for 72 hours. Following 72 hour exposure, […] of CellTiter-Glog® Reagent was added to each well. The plates were incubated for 60 minutes at 37° C. in a humidified incubator. After incubation, luminescence was recorded using the Molecular Devices AnalystGT multi-mode reader.

The test system of a further series is HCT-116 cells. Kind of series: HCT-116 human colon tumor cell viability assay (CellTiter-Glo). The settings on record: small molecules, 72 hours exposure. The series is classed as cell-based. Here is the method:
as §1, §2
The human tumor cell lines A549 and HCT-116 were obtained from American Type Culture Collection (Manassas, Va.). The HCT-116 cells were maintained in McCoy's 5a supplemented with 5% FBS. HCT-116 cells were seeded at 500 cells per well 24 hours prior to test agent exposure in a volume of 50 μL. The cells were housed in an atmosphere of 5% CO2 at 37° C. Cells were dissociated with 0.05% Trypsin and 0.02% EDTA.
Cells were exposed to twelve increasing concentrations of formulated test agent from 2.3×10^−6 to 4.02 μg/mL for 72 hours. Following 72 hour exposure, 25 μL of CellTiter-Glo® Reagent was added to each well. The plates were incubated for 60 minutes at 37° C. in a humidified incubator. After incubation, luminescence was recorded using the Molecular Devices AnalystGT multi-mode reader.

For series [4], the system named is A549 tumor cells vs normal HUVEC cells. Nature of the series: A549/HUVEC selectivity (ratio of IC50s). The series is classed as cell-based, human.
A further series addresses T1, Cathepsin B (Bos taurus, UniProt P07688).
T1 construct: purchased Sigma C6286
Nature of the series: Cathepsin B release of fumagillol analogs from HPMA conjugates. The series is classed as in vitro ADME. The settings on record: 40 nM Cathepsin B, approximately 2.5 mg/mL test agent, pH 5.5 or 6.8, 37° C., 0-24 hour, LC/MS/MS. The method, then: Cathepsin B (Sigma Cat # C6286 Lot #025K7672) was diluted to a 10× concentration in activation buffer consisting of approximately 400 nM enzyme, 30 mM DTT, 15 mM EDTA and acetate buffer, pH=5.5 for 15 minutes at room temperature.
The HPMA conjugates were made into a 10× stock solution in pH 5.5 buffer. The final reaction was performed by diluting the enzyme and substrate 10 fold into either buffer at pH=5.5 or pH=6.8. The final enzymatic reaction consisted of 40 nM Cathepsin B, approximately 2.5 mg/mL test agent, and buffer at 37° C. The reaction was stopped at 0, 2, 6, and 24 hour. To stop the reaction, 3 volumes of ice-cold methanol containing propranolol internal standard (at 1.0 μM) was added and left on ice. The samples were then analyzed by LC/MS/MS.

For series [5], the system named is A549 cells. The series is classed as in vitro ADME, human. The method, then: Cells were treated as in Example 51 except that at the end of 72 hour exposure to test agent, the cells were frozen (−70° C.) and stored for subsequent evaluation by LC/MS.
The test system of the next series is B16-F10 tumor cells. Kind of series: In vivo B16-F10 murine melanoma, lung metastases counts. The arrangement: species or system C57B16 female mice. The settings on record: 30 mg/kg, qod; sacrificed after 15 days. Here is the method:
C57B16 female mice (N=8) were injected (tail vein) with 1×10^5 B16-F10 tumor cells. After one day, mice were treated with polymer conjugates as solutions in saline (IV administration, q4d, four doses except that in one group O-7175 was administered as a single dose on day 1). TNP-470 was used as a positive control, saline as a negative control. Mice were sacrificed after 15 days. Treatment outcomes were assessed by counting lung metastases.

For the compound `CO[C@@H]1[C@H](OC(N)=O)CC[C@]2(CO2)[C@H]1[C@@]1(C)O[C@@H]1CC=C(C)C` [Carbamoylfumagillol], the “T ½” value was 5.38 days in [1] (pH 4), 17 days in series [1] (pH 5.3), 30.3 days in [1] (pH 6.7) and 25.5 days in series [1] (pH 8). The “Natural Rate Constant” value in [1] (pH 4.0, 10 mM sodium acetate buffer) was 0.0054 h⁻¹; in [1] (pH 5.3, 10 mM sodium acetate buffer), 0.0017 h⁻¹; in series [1] (pH 6.7, potassium phosphate buffer), 0.0010 h⁻¹; in series [1] (pH 8.0, potassium phosphate buffer), 0.0011 h⁻¹. Further, the decomposition result in [1] (pH 5.3 to 8.0, 37° C., over the seven day period) is on record as “less than 20%”. Also, the “A549 IC50 Average” value in the series on A549 cells [2] amounted to 2.89 ng/mL. Besides, the half-life in series [3] was 0.00833 days. Moreover, the “HUVEC IC50 Average” value in the series with HUVEC cells was 0.086 ng/mL. Further, the “HCT116 IC50 Average” value in the series on HCT-116 cells worked out at 1.035 ng/mL.

For the compound `CO[C@@H]1[C@H](O)CC[C@]2(CO2)[C@H]1[C@@]1(C)O[C@@H]1CC=C(C)C` [Fumagillol], the “A549 IC50 Average” value in the series on A549 cells [2] came to 30.1 ng/mL. Further, the “A549/HUVEC IC50 ratio” value in series [4] is recorded as 1.59. Further, the “HUVEC IC50 Average” value in the series on HUVEC cells amounted to 18.9 ng/mL. In the series with HCT-116 cells, the “HCT116 IC50 Average” value is 45.8 ng/mL.

Consider “poly(HPMA-co-MA-GFLG-NHCH2CH2N(Me)CH2C(O)NHC(O)2-fumagill-6-yl)”, for which, in the series with Cathepsin B, the “products released by Cathepsin B” value was “fumagillol, carbamoylfumagillol, and fumagil-6-yl (2-aminoethyl)methylcarbamate”.

Turning to “poly[HPMA-co-MA-GFLG-N-(6-aminohexyl)carbamoylfumagillol]”, the “Metabolites identified from the treated cells” value with A549 cells [5] was “N-(6-aminohexyl)carbamoylfumagillol,fumagill-6-yl {6-[(aminoacetyl)amino]hexyl}carbamate, and the epoxide hydrolysis product, (35′,7aR)-7a-(hydroxymethyl)-4-methoxy-3-methyl-2-(3-methylbut-2-en-1-yl)octahydro-1-benzofuran-3-ol-5-yl 6-aminohexyl carbamate”. Moreover, in the series with Cathepsin B, the “products released by Cathepsin B” value was “N-(6-aminohexyl)carbamoylfumagillol and fumagil-6-yl {6-[(aminoacetyl)amino]hexyl}carbamate”.

On to “poly(HPMA-co-MA-GFLG-N(Me)CH2CH2N(Me)CH2C(O)NHC(O)2-fumagill-6-yl)”, for which the “products released by Cathepsin B” value in the series with Cathepsin B was “fumagillol, carbamoylfumagillol, fumagil-6-yl methyl[2-(methylamino)ethyl]carbamate, and ethyl {2-[(aminoacetyl)(methyl)amino]ethyl}methylcarbamate”.

Turning to `CO[C@@H]1[C@H](OC(=O)NC(=O)CCl)CC[C@]2(CO2)[C@H]1[C@@]1(C)O[C@@H]1CC=C(C)C` [TNP-470, chloroacetylcarbamoylfumagillol], the IC50 with A549 cells [2] (Homo sapiens, A549) amounted to 8.97 ng/mL (≈ 22.3 nM); with HUVEC cells (Homo sapiens, HUVEC), 0.153 ng/mL (≈ 0.381 nM); in the series with HCT-116 cells (Homo sapiens, HCT-116, read-out: HCT116 IC50 Average), 2.64 ng/mL (≈ 6.57 nM). In the series with B16-F10 tumor cells, the “Metastases Counts” value stood at 39.5. Moreover, the “A549/HUVEC IC50 ratio” value in series [4] was found to be 58.53.

For `CO[C@@H]1[C@H](OC(=O)N[C@@H](C(N)=O)C(C)C)CC[C@]2(CO2)[C@H]1[C@@]1(C)O[C@@H]1CC=C(C)C` [Compound O-7177], in the series on A549 cells [2], the “A549 IC50 Average” value was 0.215 ng/mL. Moreover, the “A549/HUVEC IC50 ratio” value in series [4] was found to be 2.14. The “HUVEC IC50 Average” value in the series on HUVEC cells was 0.101 ng/mL. Besides, the “HCT116 IC50 Average” value in the series with HCT-116 cells came out at 0.236 ng/mL.

The half-life is the time needed for the level to fall by half in the phase considered. By IC50 is commonly meant the point on the concentration scale where inhibition reaches its midpoint.
